Data on twelve compounds can be found in ChEMBL document CHEMBL4834469, “Balancing Properties with Carboxylates: A Lead Optimization Campaign for Selective and Orally Active CDK9 Inhibitors” (ACS Med Chem Lett, 2021).

Data set [1] can be described thus: in vivo. Particulars: rat, iv, 1 mg/kg.
Description: Half life in rat at 1 mg/kg, iv
Data set [2] can be described thus: in vivo. Particulars: rat, iv, 1 mg/kg. The source holds these as a separate data set.
Description: Volume of distribution at steady state in rat at 1 mg/kg, iv
A short description of data set [3]: in vivo. Particulars: rat, po, 1 mg/kg.
Data set [4] is described as follows: in vivo. Particulars: rat, po, 1 mg/kg. The source holds these as a separate data set.
A short description of data set [5]: in vitro. Particulars: human, plasma.
Description: Plasma protein binding in human
Data set [6] can be described thus: in vitro. The note with it: rat, plasma.
Description: Plasma protein binding in rat
Data set [7] in a line: in vivo. The note with it: Sprague-Dawley, rat, iv, 10 mg/kg.
Description: Plasma concentration in anesthetized Sprague-Dawley rat upto 10 mg/kg, iv administered as single dose measured after 30 mins
For data set [8], the system named is NCI-H929. Description: cells. Particulars: Homo sapiens, NCI-H929, 24 h.
Description: Antiproliferative activity against human NCI-H929 cells assessed as reduction in cell viability incubated for 24 hrs by Cell-Titer Glo assay

Regarding `COc1ccc(F)cc1-c1ccnc2[nH]c(C3=CCC(C(=O)O)CC3)cc12` (centres undefined), in data set [1], the half-life was 2.1 h. In data set [2], the Vd is 0.51 L/kg. In data set [3], this compound showed an AUC of 3100 ng·h/mL. Besides, in data set [4], the bioavailability amounted to 70%. In addition, the fraction unbound was 0.002 in data set [5] and 0.004 in data set [6].

For `COc1ccc(F)cc1-c1ccnc2[nH]c(C3=CCC(N[C@@H](C(=O)O)C(C)C)CC3)cc12` (some centres undefined), the half-life in data set [1] was 0.68 h. The compound also yielded a Vd in data set [2] of 1 L/kg. Also, the AUC in data set [3] is below 10 ng·h/mL. In data set [4], this compound returned a bioavailability of 0.2%. The figures for the fraction unbound in data set [5] and in data set [6] were 0.023 and 0.057, respectively.

For `COc1ccc(F)cc1-c1ccnc2[nH]c(C3=CCN([C@H]4CC[C@@H](CC(=O)O)CC4)CC3)cc12`, the half-life in data set [1] was 1.7 h. This compound came in with a Vd in data set [2] of 3.4 L/kg. Also, the area under the curve (AUC) in data set [3] is 40 ng·h/mL. Moreover, the bioavailability in data set [4] turned out to be 7.9%. Moreover, the figures for the fraction unbound in data set [5] and in data set [6] were 0.036 and 0.183, respectively.

As to `COc1ccc(F)cc1-c1ccnc2[nH]c(C3=CCN([C@H]4CC[C@H](CC(=O)O)CC4)CC3)cc12`, the half-life in data set [1] was 2.8 h. Besides, in data set [2], the Vd was 4.5 L/kg. In data set [3], this compound returned an exposure (AUC) of 160 ng·h/mL. In data set [4], the bioavailability turned out to be 21%. Moreover, the fraction unbound in data set [5] was 0.037; in data set [6], 0.087.

Turning to `COc1ccc(F)cc1-c1c(F)cnc2[nH]c(C3=CCN([C@H]4CC[C@H](C(=O)O)CC4)CC3)cc12`, the half-life in data set [1] is 3.5 h. In addition, the Vd in data set [2] worked out at 2.7 L/kg. Also, in data set [3], the AUC is 450 ng·h/mL. The bioavailability in data set [4] was found to be 28%. Besides, the concentration at 0.5 h in data set [7] was found to be 9000 ng/mL. Further, the unbound share (fraction unbound) in data set [5] was 0.059; in data set [6], 0.106.

Take `CCOC(=O)NS(=O)(=O)N1CC=C(c2cc3c(-c4cc(F)ccc4OC)ccnc3[nH]2)CC1`: the half-life in data set [1] is 1.6 h. In data set [2], this compound returned a Vd of 0.29 L/kg. Moreover, the AUC in data set [3] stood at 2400 ng·h/mL. In data set [4], this compound gave a bioavailability of 64%. For the same compound, the fraction unbound in data set [5] was below 0.001; in data set [6], 0.042.

In data set [1], `COc1ccc(F)cc1-c1c(F)cnc2[nH]c(C3=CCN([C@H]4CC[C@@H](C(=O)O)CC4)CC3)cc12` gave a half-life of 3 h. In data set [2], this compound gave a Vd of 2.6 L/kg. This compound also had an AUC in data set [3] of 140 ng·h/mL. Besides, the bioavailability in data set [4] was 13%. In addition, the fraction unbound is 0.066 in data set [5] and 0.099 in data set [6].

As to `COc1ccc(F)cc1-c1c(F)cnc2[nH]c(C3=CCN([C@H]4CC[C@H](CC(=O)O)CC4)CC3)cc12`, the half-life in data set [1] is 2.8 h. Moreover, the Vd in data set [2] is 2.9 L/kg. The compound also gave an AUC in data set [3] of 140 ng·h/mL. This compound gave a bioavailability in data set [4] of 11%. The fraction unbound in data set [5] was 0.041; in data set [6] it was 0.082.

In data set [1], `COc1ccc(F)cc1-c1ccnc2[nH]c(C3=CCN([C@H]4CC[C@H](C(=O)O)CC4)CC3)cc12` gave a half-life of 3.3 h. The same compound showed a Vd in data set [2] of 1.9 L/kg. Also, the AUC in data set [3] was determined as 400 ng·h/mL. In data set [4], this compound came in with a bioavailability of 23%. The concentration at 0.5 h in data set [7] came out at 5500 ng/mL. Moreover, the fraction unbound is 0.079 in data set [5] and 0.09 in data set [6].

`COc1ccc(F)cc1-c1ccnc2[nH]c(C3=CCN(c4ccc(CC(=O)O)cc4)CC3)cc12` returned an IC50 in data set [8] above 10000 nM.

In data set [1], `COc1ccc(F)cc1-c1ccnc2[nH]c(C3=CCN([C@H]4CC[C@@H](C(=O)O)CC4)CC3)cc12` showed a half-life of 3.2 h. In data set [2], this compound registered a Vd of 4.7 L/kg. Moreover, in data set [3], the area under the curve (AUC) came to 160 ng·h/mL. The compound also displayed a bioavailability in data set [4] of 20%. Moreover, the results for the fraction unbound in data set [5] and in data set [6] were 0.074 and 0.16, respectively.

For the compound `COc1ccc(F)cc1-c1ccnc2[nH]c(C3=CCC(N4CCC(C(=O)O)CC4)CC3)cc12` (centres undefined), half-maximal inhibition in data set [8] (IC50) was put at 170 nM.
